# Data: patent US7195893B2, “Nucleic acids encoding α2δ calcium channel subunits and methods for making and using them” (Neuromed Pharmaceuticals Ltd., priority 2003, dated 2007)
# Structures can show the parent of a compound that is named as a salt.
# Legend:
# [1] = target: T1, rat α1B+β1b+chicken α2δ Ca2+ channel (Rattus norvegicus, UniProt Q02294); assay: whole-cell patch clamp screening for calcium channel blockers; type: cell-based; details: 600 nM, HEK cells, n=3, FIG. 4
# T1 construct: expressed in transfected cells; host or cells: HEK 293
# T1 sequence (Q02294 whole entry): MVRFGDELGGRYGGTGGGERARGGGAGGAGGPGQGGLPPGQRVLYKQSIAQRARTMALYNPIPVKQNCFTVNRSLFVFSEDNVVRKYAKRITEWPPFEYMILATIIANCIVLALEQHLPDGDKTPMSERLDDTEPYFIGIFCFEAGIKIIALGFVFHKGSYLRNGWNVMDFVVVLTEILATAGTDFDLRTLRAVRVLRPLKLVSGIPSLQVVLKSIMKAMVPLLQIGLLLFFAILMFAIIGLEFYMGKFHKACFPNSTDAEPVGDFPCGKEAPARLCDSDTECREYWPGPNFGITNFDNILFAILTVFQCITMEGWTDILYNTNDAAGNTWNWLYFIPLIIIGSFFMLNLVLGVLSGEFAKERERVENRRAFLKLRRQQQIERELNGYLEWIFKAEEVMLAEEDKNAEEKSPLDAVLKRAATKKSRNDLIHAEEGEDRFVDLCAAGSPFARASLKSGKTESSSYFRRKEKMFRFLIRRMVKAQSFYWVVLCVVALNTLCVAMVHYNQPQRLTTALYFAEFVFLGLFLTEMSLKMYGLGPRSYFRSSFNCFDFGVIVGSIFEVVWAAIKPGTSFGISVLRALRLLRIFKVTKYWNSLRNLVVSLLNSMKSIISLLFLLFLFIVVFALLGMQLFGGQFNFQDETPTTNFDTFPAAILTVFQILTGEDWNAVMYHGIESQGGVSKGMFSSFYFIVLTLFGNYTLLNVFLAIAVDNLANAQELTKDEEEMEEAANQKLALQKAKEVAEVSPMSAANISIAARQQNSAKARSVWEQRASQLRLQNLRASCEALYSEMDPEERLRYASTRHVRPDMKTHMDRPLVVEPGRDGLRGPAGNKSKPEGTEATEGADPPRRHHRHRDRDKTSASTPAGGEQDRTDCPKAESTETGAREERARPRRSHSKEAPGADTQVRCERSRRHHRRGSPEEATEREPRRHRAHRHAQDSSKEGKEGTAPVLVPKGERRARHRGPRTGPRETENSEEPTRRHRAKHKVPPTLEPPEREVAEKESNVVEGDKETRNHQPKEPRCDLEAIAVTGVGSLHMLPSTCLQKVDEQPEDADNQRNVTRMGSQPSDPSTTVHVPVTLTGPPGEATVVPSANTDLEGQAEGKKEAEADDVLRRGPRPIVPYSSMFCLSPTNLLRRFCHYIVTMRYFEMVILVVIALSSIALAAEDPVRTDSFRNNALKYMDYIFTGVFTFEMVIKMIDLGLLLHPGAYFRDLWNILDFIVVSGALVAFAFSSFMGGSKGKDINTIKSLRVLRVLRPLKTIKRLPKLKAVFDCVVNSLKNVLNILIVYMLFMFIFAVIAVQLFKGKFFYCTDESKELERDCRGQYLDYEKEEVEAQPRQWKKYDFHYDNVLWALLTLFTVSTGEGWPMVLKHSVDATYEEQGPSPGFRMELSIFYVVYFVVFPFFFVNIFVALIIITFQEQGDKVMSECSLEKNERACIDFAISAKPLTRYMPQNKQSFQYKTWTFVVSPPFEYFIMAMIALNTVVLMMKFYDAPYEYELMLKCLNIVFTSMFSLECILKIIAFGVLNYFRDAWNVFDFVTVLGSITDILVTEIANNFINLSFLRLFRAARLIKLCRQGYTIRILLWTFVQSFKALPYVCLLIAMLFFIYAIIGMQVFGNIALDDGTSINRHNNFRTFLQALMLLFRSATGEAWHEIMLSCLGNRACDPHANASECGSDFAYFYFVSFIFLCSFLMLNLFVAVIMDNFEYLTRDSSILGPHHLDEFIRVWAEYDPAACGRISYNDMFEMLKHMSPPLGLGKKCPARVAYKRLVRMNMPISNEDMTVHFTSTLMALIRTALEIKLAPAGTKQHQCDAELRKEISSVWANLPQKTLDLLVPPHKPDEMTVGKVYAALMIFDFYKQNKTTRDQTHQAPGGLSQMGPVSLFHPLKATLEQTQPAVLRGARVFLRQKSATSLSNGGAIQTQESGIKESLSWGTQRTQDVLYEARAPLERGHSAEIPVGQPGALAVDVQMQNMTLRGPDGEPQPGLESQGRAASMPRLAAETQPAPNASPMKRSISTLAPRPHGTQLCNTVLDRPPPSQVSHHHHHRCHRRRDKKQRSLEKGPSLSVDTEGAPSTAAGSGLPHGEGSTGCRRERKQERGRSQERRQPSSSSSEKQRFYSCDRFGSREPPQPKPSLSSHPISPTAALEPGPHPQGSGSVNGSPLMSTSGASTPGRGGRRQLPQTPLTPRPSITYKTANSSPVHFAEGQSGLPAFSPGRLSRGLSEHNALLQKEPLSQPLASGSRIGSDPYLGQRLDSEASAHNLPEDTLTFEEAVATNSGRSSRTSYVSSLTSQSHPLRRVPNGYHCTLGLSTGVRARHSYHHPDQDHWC
# Description: After an incubation period of 24 to 72 hrs, the culture medium was removed and replaced with an external recording solution containing (in mM) 5 BaCl, 129 CsCl, 1 MgCl2, 10 HEPES, 10 glucose, pH 7.4 with CsOH. Whole-cell patch clamp recordings were made with an Axopatch 200B amplifier (Axon Instruments, USA). Recording electrodes with typical resistances of 4–8 MΩ were backfilled with (in mM) 108 caesium-methansulfonate, 2 MgCl2, 10 HEPES, 11 EGTA, 2 ATP, pH 7.2 with CsOH. To create command potentials and acquire data, Clampex 8.2 software (Axon Instruments, USA) and a Digidata 1322A A/D converter interface (Axon Instrument, USA) were used. Currents were elicited at test potential of +20 mV (50 ms duration) from a holding potential of −80 mV. Leak and capacitance currents were subtracted on-line with a standard P/4 protocol. Evoked currents were filtered by a low-pass Bessel filter set at 1 kHz. Signals were acquired at 2.02 kHz and analyzed offline using pClamp 8.2 (Axon Instruments, USA) and Origin (OriginLab Corporation, USA) software. The effects of co-expressing the α2δ subunit of Example 1 with the rat α1B+β1b calcium channel subunits were tested by comparing average current density (Ipeak/cell capacitance) with and without α2δ.
# To screen for calcium channel blockers, the whole-cell patch clamp recording technique used was as described in Example 2. […]
# α2δ-2 = α2δ-2 (Homo sapiens, UniProt Q9NY47); details: Marais et al. 2001; cited from earlier work
# α2δ-2, sequence (Q9NY47 19-1150): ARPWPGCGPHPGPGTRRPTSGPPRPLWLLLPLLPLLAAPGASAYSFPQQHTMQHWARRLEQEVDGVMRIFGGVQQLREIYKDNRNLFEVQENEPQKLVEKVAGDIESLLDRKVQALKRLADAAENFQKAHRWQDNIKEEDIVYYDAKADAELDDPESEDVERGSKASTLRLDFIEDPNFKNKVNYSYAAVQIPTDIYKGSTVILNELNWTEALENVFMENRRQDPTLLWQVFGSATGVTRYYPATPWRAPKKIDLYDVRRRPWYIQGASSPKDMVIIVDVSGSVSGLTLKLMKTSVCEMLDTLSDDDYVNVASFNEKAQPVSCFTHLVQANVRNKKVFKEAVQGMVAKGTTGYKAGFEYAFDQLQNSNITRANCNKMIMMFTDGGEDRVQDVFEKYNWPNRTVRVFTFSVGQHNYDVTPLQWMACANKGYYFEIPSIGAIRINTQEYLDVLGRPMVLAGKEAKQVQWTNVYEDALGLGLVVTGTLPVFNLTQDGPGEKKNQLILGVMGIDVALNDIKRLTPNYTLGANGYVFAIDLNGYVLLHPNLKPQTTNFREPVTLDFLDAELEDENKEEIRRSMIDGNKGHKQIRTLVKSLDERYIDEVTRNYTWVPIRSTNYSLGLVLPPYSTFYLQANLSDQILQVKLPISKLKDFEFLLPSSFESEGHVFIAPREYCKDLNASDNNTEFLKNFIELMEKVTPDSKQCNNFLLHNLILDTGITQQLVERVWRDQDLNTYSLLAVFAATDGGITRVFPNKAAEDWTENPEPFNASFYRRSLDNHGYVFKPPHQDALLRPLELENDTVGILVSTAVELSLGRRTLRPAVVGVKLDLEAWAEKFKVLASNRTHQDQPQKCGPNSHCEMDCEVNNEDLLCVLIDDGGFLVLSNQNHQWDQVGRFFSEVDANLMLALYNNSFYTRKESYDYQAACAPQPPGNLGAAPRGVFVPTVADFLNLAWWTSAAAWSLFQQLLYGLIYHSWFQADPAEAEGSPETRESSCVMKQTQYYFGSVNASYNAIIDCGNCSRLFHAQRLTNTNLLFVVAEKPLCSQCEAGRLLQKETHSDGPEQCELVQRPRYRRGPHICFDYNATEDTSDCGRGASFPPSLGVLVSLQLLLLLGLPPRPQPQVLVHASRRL
# rat α1B+β1b Ca2+ channel = assay: whole-cell patch clamp, average current density with and without α2δ in transfected HEK 293 cells; type: cell-based; details: HEK 293, 6 cells, test potential +20 mV, holding −80 mV, mean±S.E.M.
# Description: Human embryonic kidney cells, HEK 293 (ATCC# CRL 1573) were grown in standard DMEM medium supplemented with 2 mM glutamine and 10% fetal bovine serum and transfected by a standard calcium-phosphate-DNA co-precipitation method or by lipofection with the full-length chicken α2δ-1 calcium channel cDNA in the mammalian expression vector pBK-RSV (see Current protocols in Molecular Biology): alone or in combination with expression vectors encoding α1 and β subunits, and with vectors expressing green fluorescent protein (GFP).
# After an incubation period of 24 to 72 hrs, the culture medium was removed and replaced with an external recording solution containing (in mM) 5 BaCl, 129 CsCl, 1 MgCl2, 10 HEPES, 10 glucose, pH 7.4 with CsOH. Whole-cell patch clamp recordings were made with an Axopatch 200B amplifier (Axon Instruments, USA). Recording electrodes with typical resistances of 4–8 MΩ were backfilled with (in mM) 108 caesium-methansulfonate, 2 MgCl2, 10 HEPES, 11 EGTA, 2 ATP, pH 7.2 with CsOH. To create command potentials and acquire data, Clampex 8.2 software (Axon Instruments, USA) and a Digidata 1322A A/D converter interface (Axon Instrument, USA) were used. […] Signals were acquired at 2.02 kHz and analyzed offline using pClamp 8.2 (Axon Instruments, USA) and Origin (OriginLab Corporation, USA) software. […]
molecule,measurement,setting,value
O=C(CC(c1ccccc1)c1ccccc1)N1CCN(C(c2ccccc2)c2ccccc2)CC1 [NMED 160 (HCl)],inhibition of Ca2+ channel current (average current density),[1],inhibition
NCC1(CC(=O)O)CCCCC1 [Gabapentin],binding to α2δ-2,α2δ-2,bind
"chicken α2δ subunit: α2δ-1 calcium channel subunit of White Leghorn chicken, SEQ ID NO:2, 1,087 amino acids (protein, listed as Gallus domesticus) MAAGWLLVFSLTLFQSLVMNHSSEGPFPSPTTIKSWVDKMQEDLITLARTASGVEQLAAIYLKNKDLYTVEANNPRQLVEIAARDIEKLLSNRSKALVRLAKEAEKYQASHQWRDEFGNNDIIYYNAKDDQNDPEKNDTESGSQRIRPVFEEDPVFRRQTSYQHAAVHIPTDIYEGSTIVLNELNWTAALDDVFKRNREEDPTLLWQVFGSATGLARYYPASPWVDNSRTPNKIDLYDVRRRPWYIQGAASPKDMLILVDASGSVSGLTLKLIRTSVIEMLETLSDDDFVNVVSFNNNAQNVSCFNHLVQANVRNKKKLKEAVDKISAKGITDYKKGFSYAFEQLLNHSVSRANCNKIIMLFTDGGEERAQEIFHKYNEDKKVRVFTFSVGQHNYDKGPIQWMACENKGYYYEIPSIGAIRINTQEYLDVLGRPMVLAGEKAKQVQWTNVYLDALELGLVITGTLPVFNLTKEQNGKINQLILGVMGVDVSLEDIKKLTPRFTLCPNGYYFAIDPNGYVLLHPNLQPKNPKSQEPVTLDFLDAELENDIKVEIRKKMIDGESGEKTFETLVKSQDERYIDKGNRTYTWTAVNGTDYSLALVLPSYSFYYIKAKIEEPITQARLEIKKDSETLKIDHFDEAGYTFIAPREYCTDVKKSENNTEFLLNFNEFIDRNTPSSPSCNTDMVIRVLLDAGFTNELAQNYWSKLYLDGVVAQFVVTDGGITRVFPKRAGEDWLENAETYEVSFYKRSLDNDNYIFTAPYYNKSGANSYESGIMVSKAVEITINGKLLKPAVVGIKIDAMKWMENFTTTTIKSLCNSEICGCEKNSMHVDCVILDDGGFLLMSNRDEYTHQIGRFFGEIDPGLMRNLINMSLYAFNKSYDYQSVCDPEEEPKQGAGLRSAYVPTIADILQLGWWASAAAWSILQQLFLSLTFPRFLEAADMEDDDFSTALPKTSCITEQTQYFFENDDKSFIGIVDCINCSRLYHAEKISNTNLVFIISDSQLLCRSCDPKPLMQAEKPDEGPNPCEMVKQPRYRKGPDVCFDEAKQEDSADCGGASGLSPSLWSMVGIQLVLLWLLSGSRHYQL",mean current density when coexpressed with chicken α2δ subunit,rat α1B+β1b Ca2+ channel,−74.5±14.0 pA/pF
